Where a name gives a salt, the structure may show the parent alone. Read-outs that look alike come from different tables or passages of the source.
Assays:
[1] = tested on: HCV-replicon RNA-containing Huh7 cells (HCV RNA); assay: HCV replicon assay: HCV RNA quantified by Q-RT-PCR after 96 h of compound exposure; format: cell-based, hepatitis C virus (HCV); conditions: for EC90: read-out: Corrected HCV RNA EC90; for log reduction at 10 µM: read-out: Corrected HCV RNA log10 reduction at 10 μM; for specific inhibition of the replicon: RNR inhibitors tested
Experimental: (§1) Incubation times differed according to the type of experiment.

[2] = tested on: HCV replicon RNA in Huh7 cells; assay: Reversal studies with natural nucleosides: HCV RNA; format: cell-based, hepatitis C virus (HCV); conditions: for log10 reduction HCV: no nucleoside
Experimental: as §1
(§2) Cells were incubated with the test compound and, simultaneously, the natural ribo- or 2′-deoxy nucleosides (adenosine, guanosine (G), cytidine (C), uridine (U), 2′-deoxycytidine (dC), 2′-deoxyuridine, thymidine, 2′-deoxyguanosine (dG), and 2′-deoxyadenosine) (Table 2).

[3] = tested on: rRNA in HCV-replicon RNA-containing Huh7 cells; assay: rRNA levels in HCV replicon cells (cellular toxicity), Q-RT-PCR after 96 h
Experimental: HCV replicon cells were seeded in the presence of test compound at approximately 10^3 cells per well in a 96-well plate and incubated for 96 hours. rRNA and HCV RNA were quantified by Q-RT-PCR. ●: HCV RNA levels; ◯: rRNA levels; ▾: HCV RNA levels after correction (=subtraction of rRNA) for cellular toxicity. […] The plots shown are the mean results of at least three independent experiments. EC90 values as given in Table 1 are read from the HCV curves corrected for cellular toxicity.
HCV-replicon RNA-containing Huh7 cells (Clone A cells; Apath, LLC, St. Louis, Mo.) were kept in exponential growth in DMEM media (high glucose, no pyruvate) containing 10% fetal bovine serum, 1× non-essential amino acids (100 units/ml), penicillin-streptomycin (100 μg/ml), glutamine (0.292 mg/ml), and G418 (1,000 μg/ml). Antiviral assays were performed in the same medium without G418. […] Cells were seeded in a 6-well plate at 10^5 cells per well. Candidate antiviral compounds were tested as described (Stuyver, et al. “A ribonucleoside analogue that blocks the replication of bovine viral diarrhea and hepatitis C viruses in culture” Antimicrob. Agents Chemother., January 2003, 47 (1), 244-254). Incubation times differed according to the type of experiment. At the end of the incubation step, cells were counted using the trypan-blue exclusion method, and total cellular RNA was isolated (Rneasy 96 kit, Qiagen, CA). Replicon RNA and an internal control (TaqMan Ribosomal RNA Control Reagents, Applied Biosystems, CA) were amplified in a single-step, multiplex RT-PCR protocol, as recommended by the manufacturer and as described (Stuyver, et al. “A ribonucleoside analogue that blocks the replication of bovine viral diarrhea and hepatitis C viruses in culture” Antimicrob. Agents Chemother., January 2003, 47 (1), 244-254).
Replicon cells were incubated in the absence or presence of these anti-metabolites for 96 hours, after which intracellular rRNA and HCV RNA levels were quantified (Table 1).

[4] = tested on: HCV replicon-containing Huh7 cell line; assay: Dynamics of replicon cell growth (cell count) over a 7-day period; conditions: seven-day assay, tested at approximately EC90 value
[5] = tested on: rRNA in HCV replicon Huh7 cells; assay: Reversal studies with natural nucleosides: rRNA; format: cell-based; conditions: for log10 reduction rRNA: no nucleoside
Experimental: as §1, §2

[6] = 96 h, corrected by subtraction of rRNA
[7] = Hepatitis C virus, Huh-7, 96 h, read from HCV curves corrected for rRNA reduction
[8] = 96 h, read from HCV curves corrected for rRNA reduction

Row | Molecule | Corrected HCV RNA log10 reduction at 10 μM [1, 6] [log10] | Corrected HCV RNA log10 reduction at 100 μM [1, 6] [log10] | EC90 ([1]; Hepatitis C virus, Huh-7, 96 h) [µM] | Log10 RNA reduction (100 μM) rRNA [3] [log10] | EC90 [1, 7] [µM] | log reduction at 10 µM ([1]; Hepatitis C virus, Huh-7, 96 h) | specific inhibition of the replicon [1] | Log10 RNA reduction (100 μM) HCV ([1]; 96 h) [log10] | further results
1 | O=C(O)C[C@H](NC(=O)CP(=O)(O)O)C(=O)O [PALA, N-(phosphonoacetyl)-L-aspartate] | 1.18 ± 0.11 | 1.30 ± 0.05 | 7.6 | 0.48 ± 0.02 |  |  |  |  | log10 reduction HCV including natural nucleoside ([2]; 100 μM + U at 50 μM): 0.14 ± 0.03 log10; log10 reduction HCV ([2]; 100 μM): 1.77 ± 0.02 log10; effect on cell growth [4]: minimal effect; log10 reduction rRNA including natural nucleoside ([5]; 100 μM + U at 50 μM): −0.13 ± 0.10 log10; log10 reduction rRNA ([5]; 100 μM): 0.48 ± 0.02 log10
2 | Nc1ccn([C@@H]2O[C@H](CO)[C@@H](O)C2(F)F)c(=O)n1 [dFdC, difluorodeoxycytidine] | 1.32 ± 0.08 |  | 0.17 |  |  |  |  |  | Corrected HCV RNA log10 reduction ([1]; dFdC tested at 50 μM, 96 h, corrected for rRNA): 1.29 ± 0.11 log10; log10 reduction HCV including natural nucleoside ([2]; 1 μM + dC at 50 μM): 0.06 ± 0.00 log10; log10 reduction HCV ([2]; 1 μM): 1.89 ± 0.07 log10; Log10 RNA reduction rRNA ([3]; dFdC tested at 50 μM): 0.59 ± 0.05 log10; log10 reduction rRNA including natural nucleoside ([5]; 1 μM + dC at 50 μM): 0.07 ± 0.02 log10; log10 reduction rRNA ([5]; 1 μM): 0.52 ± 0.03 log10
3 | CN(Cc1cnc2nc(N)nc(N)c2n1)c1ccc(C(=O)N[C@@H](CCC(=O)O)C(=O)O)cc1 [Methotrexate, methotrexate] | 0.15 ± 0.01 | 0.11 ± 0.09 |  | 0.07 ± 0.10 | > 100 |  |  |  | 
4 | CC(=O)N(O)CCCCCNC(=O)CCC(=O)N(O)CCCCCNC(=O)CCC(=O)N(O)CCCCCN [Deferoxamine, deferoxamine mesylate] |  |  |  | 0.92 ± 0.08 | > 100 | 0.17 ± 0.11 | none |  | log reduction at 100 µM ([1]; Hepatitis C virus, Huh-7, 96 h, corrected by subtraction of rRNA, read-out: Corrected HCV RNA log10 reduction at 100 μM): 0.08 ± 0.03; log reduction at 100 µM ([1]; Hepatitis C virus, Huh-7, 96 h, read-out: Log10 RNA reduction (100 μM) HCV): 1 ± 0.06
5 | O=c1cnn([C@@H]2O[C@H](CO)[C@@H](O)[C@H]2O)c(=O)[nH]1 [6-aza uridine, 6-aza-uridine] |  |  |  | 0.61 ± 0.18 | > 100 |  |  |  | effect on cytoplasmic HCV RNA metabolism ([1]; replicon system): little effect
6 | Nc1ccn(C2OC(CO)C(O)C2=CF)c(=O)n1 (stereo not drawn) [Tezacytabine, tezacytabine] | 0.63 ± 0.07 | −0.19 ± 0.49 |  | 1.78 ± 0.69 |  |  | none | 1.59 ± 0.08 | EC90 [1, 8]: > 100 µM
7 | Nc1n[nH]c(N)n1 [Guanazole, guanazole] |  | 0.32 ± 0.08 | > 100 | 0.07 ± 0.03 |  | 0.05 ± 0.08 | none | 0.25 ± 0.11 | 
8 | Cyclopentyl-cytosine [CP-C] | 0.64 ± 0.10 | 1.06 ± 0.26 |  | 0.91 ± 0.13 |  |  |  | 1.97 ± 0.38 | EC90 [1, 8]: 25 µM; log10 reduction HCV including natural nucleoside ([2]; 20 μM + C at 50 μM): 0.11 ± 0.01 log10; log10 reduction HCV ([2]; 20 μM): 1.80 ± 0.07 log10; log10 reduction HCV including natural nucleoside ([2]; 100 μM + C at 50 μM): 0.32 ± 0.11 log10; log10 reduction HCV ([2]; 100 μM): 2.32 ± 0.08 log10; log10 reduction rRNA including natural nucleoside ([5]; 20 μM + C at 50 μM): 0.02 ± 0.00 log10; log10 reduction rRNA ([5]; 20 μM): 0.87 ± 0.08 log10; log10 reduction rRNA including natural nucleoside ([5]; 100 μM + C at 50 μM): 0.17 ± 0.01 log10; log10 reduction rRNA ([5]; 100 μM): 1.21 ± 0.02 log10
9 | NC(=O)c1csc([C@@H]2O[C@H](CO)[C@@H](O)[C@H]2O)n1 [Tiazofurin, tiazofurin] |  | −0.13 ± 0.37 | > 100 | 0.99 ± 0.35 |  | 0.04 ± 0.1 |  | 0.86 ± 0.27 | 

Source: patent US20050049204A1, “Compounds for the treatment of flaviviridae infections” (priority 2003, published 2005)
